Assay results taken from patent US20240199702A1, “CELL-PERMEABLE CYCLIC PEPTIDES AND USES THEREOF” (Unnatural Products Inc., priority 2021, published 2024).
Where a SMILES comes first, the peptide text is derived from it. [ ]: non-standard residue; d: D form. The star is where a group is joined. Ala(4-thiazolyl) = N[C@@H](Cc1cscn1)C(=O)O; NMeAla(cPent) = CN[C@@H](CC1CCCC1)C(=O)O; Phe(4-Cl) = N[C@@H](Cc1ccc(Cl)cc1)C(=O)O; Phe(4-F) = N[C@@H](Cc1ccc(F)cc1)C(=O)O; Ala(cPent) = N[C@@H](CC1CCCC1)C(=O)O; Cyclohexanecarbonyl = O=C(C1CCCCC1)*; NMeCba = CN[C@@H](CC1CCC1)C(=O)O; NMeF = CN[C@@H](Cc1ccccc1)C(=O)O; NMeI = CC[C@H](C)[C@H](NC)C(=O)O; NMeT = CN[C@H](C(=O)O)[C@@H](C)O; Cba = N[C@@H](CC1CCC1)C(=O)O; Nicotinoyl = O=C(c1cccnc1)*; Isovaleryl = CC(C)CC(=O)*; Methoxyacetyl = COCC(=O)*; hSer = N[C@@H](CCO)C(=O)O; NMeA = CN[C@@H](C)C(=O)O; dNMeA = CN[C@H](C)C(=O)O; Bz = O=C(c1ccccc1)*; Nme = COCCNCC(=O)O; X1 = O=C(C(F)F)*; Sar = CNCC(=O)O

Tests used:
[1] = target: T1, Human MDM4 (HDM4) 1-114 (Homo sapiens, UniProt O15151); experiment: Fluorescence Polarization Assay 2 (MDM4/p53 peptide); assay type: binding; settings: FAM-labeled p53 peptide, 60 minutes
T1 construct: Human MDM4 (HDM4) 1-114
T1 sequence (O15151 1-114): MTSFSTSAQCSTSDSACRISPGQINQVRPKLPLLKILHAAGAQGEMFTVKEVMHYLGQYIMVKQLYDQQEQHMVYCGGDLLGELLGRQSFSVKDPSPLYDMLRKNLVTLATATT
Protocol: Fluorescence Polarization Assay 2
(§1) Human MDM4 (HDM4) 1-114 (20 μL) and FAM-labeled GGTSFAEYWNLLSP —NH2, 20 nM and 5 nM respectively in 10 mM Tris, 50 mM NaCl, 0.01% Tween20, and 1 mM DTT at pH 7.4 were dispensed into an opaque, black, 384 well plate. Compounds dissolved in DMSO were pin transferred (−100-200 nL) to the 384 well plate containing the MDM4/p53 solution. After incubation for 60 minutes, the fluorescence polarization was read on a Molecular Devices SpectraMax plate reader equipped with a Fluorescein FP cartridge. In addition to probe alone (positive control) and probe/MDM4 (negative control), a titration of linear p53(18-26) was included on every plate as an additional control. IC50 values were fit using either Prism or Collaborative Drug Discovery.

[2] = target: T2, Human MDM2 (HDM2) 1-116 (Homo sapiens, UniProt Q00987); experiment: Fluorescence Polarization Assay 1 (MDM2/p53 peptide); assay type: binding; settings: FAM-labeled p53 peptide, 60 minutes
T2 construct: Human MDM2 (HDM2) 1-116
T2 sequence (Q00987 1-116): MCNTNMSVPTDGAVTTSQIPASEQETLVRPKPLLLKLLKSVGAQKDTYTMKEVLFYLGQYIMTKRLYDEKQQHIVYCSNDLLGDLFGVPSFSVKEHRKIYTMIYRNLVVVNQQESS
Protocol: Fluorescence Polarization Assay 1
as §1, with “MDM2 (HDM2) 1-116” for “MDM4 (HDM4) 1-114”, “GGTSFAEYWNLLSP-NH2, 10” for “GGTSFAEYWNLLSP —NH2, 20”, “(˜100-200” for “(−100-200”, “MDM2/p53” for “MDM4/p53”, “probe/MDM2” for “probe/MDM4”

IC50 [1] | IC50 [2] | SMILES
25 to 50 nM | < 25 nM | COCC[C@@H]1NC(=O)[C@H]2CCCN2C(=O)[C@H](Cc2ccccc2)N(C)C(=O)[C@H](Cc2ccc(Cl)cc2)NC(=O)[C@H]([C@@H](C)OC(C)=O)NC(=O)[C@H](Cc2ccc(F)cc2)NC(=O)CN(CCOC)C(=O)[C@@H](C)N(C)C(=O)[C@H](Cc2cscn2)NC(=O)[C@H](C)N(C)C1=O [compound 1] (cyclo([Ala(4-thiazolyl)][dNMeA][Nme][Phe(4-F)]T(Ac)[Phe(4-Cl)][NMeF][dP][hSer](Me)[NMeA]))
< 25 nM | < 25 nM | COCC[C@@H]1NC(=O)[C@H]2CCCN2C(=O)[C@H](Cc2ccccc2)N(C)C(=O)[C@H](Cc2ccc(Cl)cc2)NC(=O)[C@H]([C@@H](C)OC(=O)c2ccccc2)NC(=O)[C@H](Cc2ccc(F)cc2)NC(=O)CN(CCOC)C(=O)[C@@H](C)N(C)C(=O)[C@H](Cc2cscn2)NC(=O)[C@H](C)N(C)C1=O [compound 2] (cyclo([Ala(4-thiazolyl)][dNMeA][Nme][Phe(4-F)]T(Bz)[Phe(4-Cl)][NMeF][dP][hSer](Me)[NMeA]))
50 to 100 nM | < 25 nM | COCC[C@@H]1NC(=O)[C@H]2CCCN2C(=O)[C@H](Cc2ccccc2)N(C)C(=O)[C@H](Cc2ccc(Cl)cc2)NC(=O)[C@H]([C@@H](C)OC(=O)c2cccnc2)NC(=O)[C@H](Cc2ccc(F)cc2)NC(=O)CN(CCOC)C(=O)[C@@H](C)N(C)C(=O)[C@H](Cc2cscn2)NC(=O)[C@H](C)N(C)C1=O [compound 3] (cyclo([Ala(4-thiazolyl)][dNMeA][Nme][Phe(4-F)]T(Nicotinoyl)[Phe(4-Cl)][NMeF][dP][hSer](Me)[NMeA]))
25 to 50 nM | < 25 nM | COCC[C@@H]1NC(=O)[C@H]2CCCN2C(=O)[C@H](Cc2ccccc2)N(C)C(=O)[C@H](Cc2ccc(Cl)cc2)NC(=O)[C@H]([C@@H](C)OC(=O)COC)NC(=O)[C@H](Cc2ccc(F)cc2)NC(=O)CN(CCOC)C(=O)[C@@H](C)N(C)C(=O)[C@H](Cc2cscn2)NC(=O)[C@H](C)N(C)C1=O [compound 4] (cyclo([Ala(4-thiazolyl)][dNMeA][Nme][Phe(4-F)]T(Methoxyacetyl)[Phe(4-Cl)][NMeF][dP][hSer](Me)[NMeA]))
50 to 100 nM | 25 to 50 nM | COCC[C@@H]1NC(=O)[C@H]2CCCN2C(=O)[C@H](Cc2ccccc2)N(C)C(=O)[C@H](Cc2ccc(Cl)cc2)NC(=O)[C@H]([C@@H](C)OC(=O)CC(C)C)NC(=O)[C@H](Cc2ccc(F)cc2)NC(=O)CN(CCOC)C(=O)[C@@H](C)N(C)C(=O)[C@H](Cc2cscn2)NC(=O)[C@H](C)N(C)C1=O [compound 5] (cyclo([Ala(4-thiazolyl)][dNMeA][Nme][Phe(4-F)]T(Isovaleryl)[Phe(4-Cl)][NMeF][dP][hSer](Me)[NMeA]))
50 to 100 nM | 25 to 50 nM | COCC[C@@H]1NC(=O)[C@H]2CCCN2C(=O)[C@H](Cc2ccccc2)N(C)C(=O)[C@H](Cc2ccc(Cl)cc2)NC(=O)[C@H]([C@@H](C)OC(=O)C(F)F)NC(=O)[C@H](Cc2ccc(F)cc2)NC(=O)CN(CCOC)C(=O)[C@@H](C)N(C)C(=O)[C@H](Cc2cscn2)NC(=O)[C@H](C)N(C)C1=O [compound 7] (cyclo([Ala(4-thiazolyl)][dNMeA][Nme][Phe(4-F)]T(X1)[Phe(4-Cl)][NMeF][dP][hSer](Me)[NMeA]))
≥ 100 nM | ≥ 100 nM | COCC[C@@H]1NC(=O)[C@H]2CCCN2C(=O)[C@H](Cc2ccccc2)N(C)C(=O)[C@H](Cc2ccc(Cl)cc2)NC(=O)[C@H]([C@@H](C)OC(=O)C2CCCCC2)NC(=O)[C@H](Cc2ccc(F)cc2)NC(=O)CN(CCOC)C(=O)[C@@H](C)N(C)C(=O)[C@H](Cc2cscn2)NC(=O)[C@H](C)N(C)C1=O [compound 8] (cyclo([Ala(4-thiazolyl)][dNMeA][Nme][Phe(4-F)]T(Cyclohexanecarbonyl)[Phe(4-Cl)][NMeF][dP][hSer](Me)[NMeA]))
50 to 100 nM | < 25 nM | COCC[C@@H]1NC(=O)[C@H]2CCCN2C(=O)[C@H](Cc2ccccc2)N(C)C(=O)[C@H](Cc2ccc(Cl)cc2)NC(=O)[C@H](CC2CCC2)N(C)C(=O)[C@H](Cc2ccc(F)cc2)NC(=O)CN(CCOC)C(=O)[C@@H](C)N(C)C(=O)[C@H](Cc2cscn2)NC(=O)[C@H](C)N(C)C1=O [compound 9] (cyclo([Ala(4-thiazolyl)][dNMeA][Nme][Phe(4-F)][NMeCba][Phe(4-Cl)][NMeF][dP][hSer](Me)[NMeA]))
≥ 100 nM | < 25 nM | COCC[C@@H]1NC(=O)[C@H]2CCCN2C(=O)[C@H](Cc2ccccc2)N(C)C(=O)[C@H](Cc2ccc(Cl)cc2)NC(=O)[C@H](CC2CCCC2)N(C)C(=O)[C@H](Cc2ccc(F)cc2)NC(=O)CN(CCOC)C(=O)[C@@H](C)N(C)C(=O)[C@H](Cc2cscn2)NC(=O)[C@H](C)N(C)C1=O [compound 10] (cyclo([Ala(4-thiazolyl)][dNMeA][Nme][Phe(4-F)][NMeAla(cPent)][Phe(4-Cl)][NMeF][dP][hSer](Me)[NMeA]))
< 25 nM | < 25 nM | COCC[C@@H]1NC(=O)[C@H]2CCCN2C(=O)[C@H](Cc2ccccc2)N(C)C(=O)[C@H](Cc2ccc(Cl)cc2)NC(=O)[C@H]([C@@H](C)OC)NC(=O)[C@H](Cc2ccc(F)cc2)NC(=O)CN(CCOC)C(=O)[C@@H](C)N(C)C(=O)[C@H](Cc2cscn2)NC(=O)[C@H](C)N(C)C1=O [compound 12] (cyclo([Ala(4-thiazolyl)][dNMeA][Nme][Phe(4-F)]T(Me)[Phe(4-Cl)][NMeF][dP][hSer](Me)[NMeA]))
25 to 50 nM | < 25 nM | COCC[C@@H]1NC(=O)[C@H]2CCCN2C(=O)[C@H](Cc2ccccc2)N(C)C(=O)[C@H](Cc2ccc(Cl)cc2)NC(=O)[C@H](C(C)C)NC(=O)[C@H](Cc2ccc(F)cc2)NC(=O)CN(C)C(=O)[C@@H](C)N(C)C(=O)[C@H](Cc2cscn2)NC(=O)[C@H](C)N(C)C1=O [compound 13] (cyclo([Ala(4-thiazolyl)][dNMeA][Sar][Phe(4-F)]V[Phe(4-Cl)][NMeF][dP][hSer](Me)[NMeA]))
25 to 50 nM | < 25 nM | COCC[C@@H]1NC(=O)[C@H]2CCCN2C(=O)[C@H](Cc2ccccc2)N(C)C(=O)[C@H](Cc2ccc(Cl)cc2)NC(=O)[C@H](CC2CCC2)NC(=O)[C@H](Cc2ccc(F)cc2)NC(=O)CN(CCOC)C(=O)[C@@H](C)N(C)C(=O)[C@H](C)N(C)C1=O [compound 14] (cyclo([Cba][Phe(4-Cl)][NMeF][dP][hSer](Me)[NMeA][dNMeA][Nme][Phe(4-F)]))
50 to 100 nM | < 25 nM | COCC[C@@H]1NC(=O)[C@H]2CCCN2C(=O)[C@H](Cc2ccccc2)N(C)C(=O)[C@H](Cc2ccc(Cl)cc2)NC(=O)[C@H](CC2CCCC2)NC(=O)[C@H](Cc2ccc(F)cc2)NC(=O)CN(CCOC)C(=O)[C@@H](C)N(C)C(=O)[C@H](C)N(C)C1=O [compound 15] (cyclo([Ala(cPent)][Phe(4-Cl)][NMeF][dP][hSer](Me)[NMeA][dNMeA][Nme][Phe(4-F)]))
25 to 50 nM | < 25 nM | CC[C@H](C)[C@@H]1NC(=O)[C@H](Cc2ccc(F)cc2)NC(=O)CN(CCOC)C(=O)[C@@H](C)N(C)C(=O)[C@H](Cc2cscn2)NC(=O)[C@H](C)N(C)C(=O)[C@H](CCOC)NC(=O)[C@H]2CCCN2C(=O)[C@H](Cc2ccccc2)N(C)C(=O)[C@H](Cc2ccc(Cl)cc2)NC1=O [compound 16] (cyclo([Ala(4-thiazolyl)][dNMeA][Nme][Phe(4-F)]I[Phe(4-Cl)][NMeF][dP][hSer](Me)[NMeA]))
≥ 100 nM | < 25 nM | CC[C@H](C)[C@H]1C(=O)N[C@@H](Cc2ccc(Cl)cc2)C(=O)N(C)[C@@H](Cc2ccccc2)C(=O)N2CCC[C@@H]2C(=O)N[C@@H](CCOC)C(=O)N(C)[C@@H](C)C(=O)N[C@@H](Cc2cscn2)C(=O)N(C)[C@H](C)C(=O)N(CCOC)CC(=O)N[C@@H](Cc2ccc(F)cc2)C(=O)N1C [compound 17] (cyclo([Ala(4-thiazolyl)][dNMeA][Nme][Phe(4-F)][NMeI][Phe(4-Cl)][NMeF][dP][hSer](Me)[NMeA]))
25 to 50 nM | < 25 nM | COCC[C@@H]1NC(=O)[C@H]2CCCN2C(=O)[C@H](Cc2ccccc2)N(C)C(=O)[C@H](Cc2ccc(Cl)cc2)NC(=O)[C@H]([C@@H](C)O)NC(=O)[C@H](Cc2ccc(F)cc2)NC(=O)CN(CCOC)C(=O)[C@@H](C)N(C)C(=O)[C@H](Cc2cscn2)NC(=O)[C@H](C)N(C)C1=O [compound 18] (cyclo([hSer](Me)[NMeA][Ala(4-thiazolyl)][dNMeA][Nme][Phe(4-F)]T[Phe(4-Cl)][NMeF][dP]))
50 to 100 nM | < 25 nM | COCC[C@@H]1NC(=O)[C@H]2CCCN2C(=O)[C@H](Cc2ccccc2)N(C)C(=O)[C@H](Cc2ccc(Cl)cc2)NC(=O)[C@H]([C@@H](C)O)N(C)C(=O)[C@H](Cc2ccc(F)cc2)NC(=O)CN(CCOC)C(=O)[C@@H](C)N(C)C(=O)[C@H](Cc2cscn2)NC(=O)[C@H](C)N(C)C1=O [compound 19] (cyclo([Ala(4-thiazolyl)][dNMeA][Nme][Phe(4-F)][NMeT][Phe(4-Cl)][NMeF][dP][hSer](Me)[NMeA]))
